Data set [1] addresses T1, Replication protein A 70 kDa DNA-binding subunit (Homo sapiens, UniProt P27694).
Data set [2] relates to U2OS. Description: Cellular uptake in human U2OS cells after 24 hrs by confocal microscopy. The class given is ADME, cell-based.
The target of data set [3] is T1, Replication protein A 70 kDa DNA-binding subunit. Kind of data set: Binding affinity to recombinant human RPA70 A/B region (181 to 422 amino acids) expressed in Escherichia coli Rosetta by fluorescence polarization anisotropy assay. In general terms: Polarisation of emitted light reports the rotation of a fluorescent probe.
Data set [4] in a line: Binding affinity to recombinant human RPA70C/32D/14 by fluorescence polarization anisotropy assay.

Positions of bridges follow the written chain, without caps; N, C: chain ends. Non-standard residues stand in square brackets, D forms with d. Residues, ends and D or L forms follow the SMILES beside them. *: point of attachment. X1 = O=C(O)c1cc(NC(=S)*)ccc1-c1c2ccc(=O)cc-2oc2cc(O)ccc12; Phe(3,4-Cl2) = N[C@@H](Cc1ccc(Cl)c(Cl)c1)C(=O)O; R5 = C=CCCC[C@@](C)(N)C(=O)O

T1 sequence (P27694 whole entry): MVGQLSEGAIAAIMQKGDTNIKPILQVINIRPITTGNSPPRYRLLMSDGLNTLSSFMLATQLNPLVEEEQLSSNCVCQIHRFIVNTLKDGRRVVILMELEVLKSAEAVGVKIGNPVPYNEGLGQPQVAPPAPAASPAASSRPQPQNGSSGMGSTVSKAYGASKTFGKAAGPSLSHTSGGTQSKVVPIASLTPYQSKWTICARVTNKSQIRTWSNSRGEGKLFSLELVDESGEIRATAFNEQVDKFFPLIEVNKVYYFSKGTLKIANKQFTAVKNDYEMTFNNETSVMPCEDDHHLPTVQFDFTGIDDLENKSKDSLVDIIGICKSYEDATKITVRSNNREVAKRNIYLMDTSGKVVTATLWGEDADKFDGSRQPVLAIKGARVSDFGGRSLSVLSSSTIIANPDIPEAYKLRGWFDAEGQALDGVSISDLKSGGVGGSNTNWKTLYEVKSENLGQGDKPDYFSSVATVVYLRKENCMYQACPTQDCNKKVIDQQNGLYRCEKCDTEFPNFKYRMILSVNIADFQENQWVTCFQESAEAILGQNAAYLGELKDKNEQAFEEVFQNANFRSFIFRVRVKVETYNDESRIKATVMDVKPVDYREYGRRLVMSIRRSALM

A word on the Kd: it is a measure of binding affinity in units of concentration. Regarding Ac-DFTADDLAEWFTLAS-NH2, in data set [1], the Kd was found to be 43 µM. Still for that read-out and setting: the figure for `CC(C)C[C@H](NC(=O)[C@H](C)NC(=O)[C@H](Cc1ccccc1)NC(=O)[C@H](Cc1c[nH]c2ccccc12)NC(=O)[C@H](C)NC(=O)[C@H](CCC(=O)O)NC(=O)[C@H](CC(C)C)NC(=O)[C@H](CC(N)=O)NC(=O)[C@H](C)NC(=O)[C@H](C)NC(=O)[C@@H](NC(=O)[C@H](Cc1ccccc1)NC(=O)[C@H](CC(N)=O)NC(=S)Nc1ccc(-c2c3ccc(=O)cc-3oc3cc(O)ccc23)c(C(=O)O)c1)[C@@H](C)O)C(=O)N[C@@H](C)C(=O)N[C@@H](CO)C(N)=O` (X1-NFTAANLEAWFALAS-NH2) is 21 µM. Same read-out and setting: then Ac-DFTAADLEELDTLAS-NH2, with 31 µM. Still for that read-out and setting: the figure for `CC(C)C[C@H](NC(=O)[C@H](C)NC(=O)[C@H](Cc1ccc(Cl)c(Cl)c1)NC(=O)[C@H](Cc1c[nH]c2ccccc12)NC(=O)[C@H](CCC(=O)O)NC(=O)[C@H](CCC(=O)O)NC(=O)[C@H](CC(C)C)NC(=O)[C@H](CC(=O)O)NC(=O)[C@H](CC(=O)O)NC(=O)[C@H](C)NC(=O)[C@@H](NC(=O)[C@H](Cc1ccccc1)NC(=O)[C@H](CC(=O)O)NC(=S)Nc1ccc(-c2c3ccc(=O)cc-3oc3cc(O)ccc23)c(C(=O)O)c1)[C@@H](C)O)C(N)=O` (X1-DFTADDLEEW[Phe(3,4-Cl2)]AL-NH2) is 0.022 µM.

Ac-DFTADDLEEWFALAS-NH2 returned a Kd in data set [1] of 1.2 µM. The molecule Ac-AFTADDLEELDTLAS-NH2 returned a Kd in data set [1] of 152 µM. The same measure, in the same setting: the figure for Ac-DFTADDLAELDALAS-NH2 is 20 µM; for Ac-DFTADDAEELDTLAS-NH2 it is 172 µM. `CC(C)C[C@H](NC(=O)[C@H](C)NC(=O)[C@H](Cc1ccccc1)NC(=O)[C@H](Cc1c[nH]c2ccccc12)NC(=O)[C@@]1(C)CCC/C=C\CCC[C@@](C)(NC(=O)[C@H](C)NC(=O)[C@@H](NC(=O)[C@H](Cc2ccccc2)NC(=O)[C@H](CC(=O)O)NC(=S)Nc2ccc(-c3c4ccc(=O)cc-4oc4cc(O)ccc34)c(C(=O)O)c2)[C@@H](C)O)C(=O)N[C@@H](CC(=O)O)C(=O)N[C@@H](CC(C)C)C(=O)N[C@@H](CCC(=O)O)C(=O)N1)C(=O)O` (X1-DFTA[R5]DLE[R5]WFAL-OH; staple (Z) 5-9): the Drug uptake result in data set [2] is “Not Active”. The molecule also returned a Kd in data set [1] of 0.57 µM. Ac-DFTANDLEEWFALAS-NH2 returned a Kd in data set [1] of 19 µM. With Ac-DFTAADLEEWFALAS-NH2, in data set [1], the Kd is 2.3 µM. Still for that read-out and setting: the figure for Ac-DFTADALEEWFALAS-NH2 is 28 µM; for Ac-DFTADDLEELFTLAS-NH2 it is 22 µM. In turn, Ac-DFTADDLEALDTLAS-NH2 showed a Kd in data set [1] of 167 µM. The same measure, in the same setting: the figure for Ac-DFTADNLEEWFALAS-NH2 is 6.9 µM; for Ac-DFTADDLEAWFALAS-NH2 it is 2.4 µM; for Ac-DFTADDLEELATLAS-NH2 it is 85 µM. Same read-out and setting: the figure for Ac-NFTADDLEEWFALAS-NH2 is 5.8 µM; for `CC(C)C[C@H](NC(=O)[C@H](C)NC(=O)[C@H](Cc1ccccc1)NC(=O)[C@H](Cc1c[nH]c2ccccc12)NC(=O)[C@@]1(C)CCC/C=C\CCC[C@@](C)(NC(=O)[C@H](C)NC(=O)[C@@H](NC(=O)[C@H](Cc2ccccc2)NC(=O)[C@H](CC(N)=O)NC(=S)Nc2ccc(-c3c4ccc(=O)cc-4oc4cc(O)ccc34)c(C(=O)O)c2)[C@@H](C)O)C(=O)N[C@@H](CC(=O)O)C(=O)N[C@@H](CC(C)C)C(=O)N[C@@H](CCC(=O)O)C(=O)N1)C(=O)O` (X1-NFTA[R5]DLE[R5]WFAL-OH; staple (Z) 5-9) it is 1.5 µM. On the same count and under the same terms, the figure for `CC(C)C[C@H](NC(=O)[C@H](C)NC(=O)[C@H](Cc1ccccc1)NC(=O)[C@H](Cc1c[nH]c2ccccc12)NC(=O)[C@H](CCC(=O)O)NC(=O)[C@H](CCC(=O)O)NC(=O)[C@H](CC(C)C)NC(=O)[C@H](CC(=O)O)NC(=O)[C@H](CC(=O)O)NC(=O)[C@H](C)NC(=O)[C@@H](NC(=O)[C@H](Cc1ccccc1)NC(=O)[C@H](CC(=O)O)NC(=S)Nc1ccc(-c2c3ccc(=O)cc-3oc3cc(O)ccc23)c(C(=O)O)c1)[C@@H](C)O)C(N)=O` (X1-DFTADDLEEWFAL-NH2) is 0.33 µM; for Ac-DFTADDLEELDTAAS-NH2 it is 63 µM. In data set [1], Ac-DFTADDLEELDTLAA-NH2 yielded a Kd of 26 µM. For `CC(C)C[C@H](NC(=O)[C@H](C)NC(=O)[C@H](Cc1ccccc1)NC(=O)[C@H](Cc1c[nH]c2ccccc12)NC(=O)[C@@]1(C)CCC/C=C\CCC[C@@](C)(NC(=O)[C@H](C)NC(=O)[C@@H](NC(=O)[C@H](Cc2ccccc2)NC(=O)[C@H](CC(N)=O)NC(=S)Nc2ccc(-c3c4ccc(=O)cc-4oc4cc(O)ccc34)c(C(=O)O)c2)[C@@H](C)O)C(=O)N[C@@H](CC(N)=O)C(=O)N[C@@H](CC(C)C)C(=O)N[C@@H](CCC(=O)O)C(=O)N1)C(=O)O` (X1-NFTA[R5]NLE[R5]WFAL-OH; staple (Z) 5-9), the Kd in data set [3] was 12 µM; in data set [4] it was 12 µM; in data set [1], 7.4 µM. In addition, the Drug uptake result in data set [2] is given as “Active”.

Take Ac-DFTADDLAELDTLAS-OH: the Kd in data set [1] came out at 22 µM. Same read-out and setting: then `CC(C)C[C@H](NC(=O)[C@H](C)NC(=O)[C@H](Cc1ccc(Cl)c(Cl)c1)NC(=O)[C@H](Cc1c[nH]c2ccccc12)NC(=O)[C@@]1(C)CCC/C=C\CCC[C@@](C)(NC(=O)[C@H](C)NC(=O)[C@@H](NC(=O)[C@H](Cc2ccccc2)NC(=O)[C@H](CC(N)=O)NC(=S)Nc2ccc(-c3c4ccc(=O)cc-4oc4cc(O)ccc34)c(C(=O)O)c2)[C@@H](C)O)C(=O)N[C@@H](CC(=O)O)C(=O)N[C@@H](CC(C)C)C(=O)N[C@@H](CCC(=O)O)C(=O)N1)C(=O)O` (X1-NFTA[R5]DLE[R5]W[Phe(3,4-Cl2)]AL-OH; staple (Z) 5-9), with 0.048 µM; and `CC(C)C[C@H](NC(=O)[C@H](CC(=O)O)NC(=O)[C@H](CC(=O)O)NC(=O)[C@H](C)NC(=O)[C@@H](NC(=O)[C@H](Cc1ccccc1)NC(=O)[C@H](CC(=O)O)NC(=S)Nc1ccc(-c2c3ccc(=O)cc-3oc3cc(O)ccc23)c(C(=O)O)c1)[C@@H](C)O)C(=O)N[C@@H](CCC(=O)O)C(=O)N[C@@H](CCC(=O)O)C(=O)N[C@@H](CC(C)C)C(=O)N[C@@H](CC(=O)O)C(=O)N[C@H](C(=O)N[C@@H](CC(C)C)C(=O)N[C@@H](C)C(=O)N[C@@H](CO)C(N)=O)[C@@H](C)O` (X1-DFTADDLEELDTLAS-NH2), with 6.4 µM. As for `CC(C)C[C@H](NC(=O)[C@H](C)NC(=O)[C@H](Cc1ccccc1)NC(=O)[C@H](Cc1c[nH]c2ccccc12)NC(=O)[C@@]1(C)CCC/C=C\CCC[C@@](C)(NC(=O)[C@H](C)NC(=O)[C@@H](NC(=O)[C@H](Cc2ccccc2)NC(=O)[C@H](CC(=O)O)NC(=S)Nc2ccc(-c3c4ccc(=O)cc-4oc4cc(O)ccc34)c(C(=O)O)c2)[C@@H](C)O)C(=O)N[C@@H](CC(N)=O)C(=O)N[C@@H](CC(C)C)C(=O)N[C@@H](CCC(=O)O)C(=O)N1)C(=O)O` (X1-DFTA[R5]NLE[R5]WFAL-OH; staple (Z) 5-9), the Drug uptake entry in data set [2] was “Active”. Further, the Kd in data set [1] turned out to be 3.7 µM. As for Ac-DFTADALEELDTLAS-NH2, in data set [1], the dissociation constant (Kd) was determined as 225 µM. Still for that read-out and setting: then `CC(C)C[C@H](NC(=O)[C@H](CC(=O)O)NC(=O)[C@H](CC(=O)O)NC(=O)[C@H](C)NC(=O)[C@@H](NC(=O)[C@H](Cc1ccccc1)NC(=O)[C@H](CC(=O)O)NC(=S)Nc1ccc(-c2c3ccc(=O)cc-3oc3cc(O)ccc23)c(C(=O)O)c1)[C@@H](C)O)C(=O)N[C@@H](CCC(=O)O)C(=O)N[C@@H](CCC(=O)O)C(=O)N[C@@H](Cc1c[nH]c2ccccc12)C(=O)N[C@@H](Cc1ccccc1)C(=O)N[C@@H](C)C(N)=O` (X1-DFTADDLEEWFA-NH2), with 0.91 µM. Still for that read-out and setting: then Ac-DFTADDLAEWFALAS-NH2, with 28 µM; and Ac-DFTADDLEQWFALAS-NH2, with 2.6 µM; and Ac-DFTADDLEELDALAS-NH2, with 17 µM. In data set [1], `CC(C)C[C@H](NC(=O)[C@H](C)NC(=O)[C@H](Cc1ccccc1)NC(=O)[C@H](Cc1c[nH]c2ccccc12)NC(=O)[C@H](CCC(=O)O)NC(=O)[C@H](CCC(=O)O)NC(=O)[C@H](CC(C)C)NC(=O)[C@H](CC(=O)O)NC(=O)[C@H](CC(=O)O)NC(=O)[C@H](C)NC(=O)[C@@H](NC(=O)[C@H](Cc1ccccc1)NC(=O)[C@H](CC(=O)O)NC(=S)Nc1ccc(-c2c3ccc(=O)cc-3oc3cc(O)ccc23)c(C(=O)O)c1)[C@@H](C)O)C(=O)N[C@@H](C)C(N)=O` (X1-DFTADDLEEWFALA-NH2) had a dissociation constant (Kd) of 0.58 µM. Still for that read-out and setting: the figure for Ac-DFAADDLEELDTLAS-NH2 is 152 µM; for Ac-DFTADDLEEADTLAS-NH2 it is 197 µM; for Ac-DFTADDLEEWDTLAS-NH2 it is 138 µM. On the same count and under the same terms, then Ac-DFTADDLEEWFTLAS-NH2, with 2.7 µM.
